Reference: a melting point compilation (Tetko et al.; mined from patent text by program, amines drawn as free bases though some values may be those of a salt)

Point of comparison: CCC1CC(=O)N(Cc2ccc(NC(C)=O)cc2)N=C1c1ccc(OC)c(OC2CCCC2)c1 (configuration not stated), melting point 162 °C. Against it:
- CN(C)CCCC(C#N)(c1ccc(Cl)cc1)c1ccc(-n2ncc(=O)[nH]c2=O)cc1Cl (configuration not stated) — lower, 140 °C
- Nc1c(C(=O)c2cccc(C(=O)O)c2)[nH]c2cc(Cl)ccc12 — higher, 263 to 270 °C
- C[C@H](Cn1ncc2ccc3c(c21)C=CCO3)O[Si](C)(C)C(C)(C)C — lower, 58 to 59 °C
- O=C(C=C1SC(Nc2c(Cl)cccc2Cl)=NC1=O)NCc1ccccc1 — higher, 205 to 206 °C
- COc1ccc(-c2oc3cc(C)c(C)cc3c2-c2ccc(OC)cc2)cc1 — lower, 153 °C
- NC(=O)c1c(F)ccc([N+](=O)[O-])c1F — lower, 134 to 135 °C
- O=Cc1nn(-c2cccc(C(F)(F)F)c2)c2c1CCCC2 — lower, 88 °C
- Nc1ccc(C2=NNC(=O)Cc3cc4c(cc32)OCO4)cc1Cl — higher, 256 to 258 °C
- CCCNC(=O)C1(CCCCSc2ccccc2)c2ccccc2-c2ccccc21 — lower, 50 to 53 °C
- COc1ccc(N2CCN(c3ccc(OC)nc3-c3ccc(C(C)(C)O)cc3)CC2)cc1 — lower, 138 to 144 °C
- O=C(O)Cc1ccc2c(c1)CC(CCNS(=O)(=O)c1ccc(Cl)cc1)C2 (configuration not stated) — lower, 146 to 147 °C
- Cc1ccccc1C(=O)Nn1c(=O)c(=O)[nH]c2ccc3ccc([N+](=O)[O-])cc3c21 — higher, > 230 °C
- Cc1ccccc1NC(=O)c1c(Br)cccc1[Si](C)(C)C — lower, 113 to 115 °C
- CCCc1c(N)ccc2c(=O)cc(C(=O)OCC)oc12 — lower, 84 to 87 °C
- COc1cccc2c1-c1ccc3c(c1C(O)O2)C(C)=CC(C)(C)N3 (configuration not stated) — higher, 184 to 185 °C
- NC1N=C(N2CCCCC2)c2ccccc2NC1=O (configuration not stated) — lower, 103 to 105 °C
- CC(C)Cc1cc2cc(O)c(Cl)c(Cl)c2s1 — lower, 58 to 59 °C
- COc1ccc(C2=NN(c3ccc(CC(=O)O)cc3)C(=O)[C@H]3CC=CC[C@@H]23)cc1OC (relative stereo) — the same, 162 °C
- O=C1c2ccccc2C(=O)c2c1cccc2N1CCN(CCO)CC1 — lower, 140 °C
- CCCCCCCNC(=O)Nc1ccc(-n2cccn2)cc1C(=O)NCC1CCN(C(c2ccccc2)c2ccccc2)CC1 — higher, 176 to 178 °C
- Cc1cc(S(=O)(=O)NCC(C)C)c2c(C)ccc(C(C)C)cc1-2 — lower, 117 to 118 °C
- NC(=O)C1=CC=CN(CCc2ccc(Cl)s2)C1Oc1ccc(F)cc1 (configuration not stated) — lower, 78 to 80 °C
- COc1ccc2c(c1)C1(CCN(CCCC(=O)c3ccc(F)cc3)C1)CC2O (configuration not stated) — higher, 163 to 165 °C
- O=C(CCCl)c1cc2ccccc2o1 — lower, 116 to 118 °C
- Cc1nn(Cc2ccc(OCc3nc(-c4ccccc4)oc3C)cc2)c(C)c1CCC(=O)O — higher, 170 to 171 °C
- O=[N+]([O-])c1cccc2ccc3c(c12)C(CCl)CN3 (configuration not stated) — lower, 100 °C
- c1ccc(CN2CCN(Cc3ccccc3)[C@@H](CCc3cccnc3)C2)cc1 — lower, 94 to 95.5 °C
- CCCCSc1ccc(C2CC(=O)C(C(=O)CC)=C(O)C2)cc1[N+](=O)[O-] (configuration not stated) — lower, 102 °C
- [O-][N+]1=C(c2ccccc2F)c2cc(Cl)ccc2NC(C(=NO)N2CCOCC2)C1 (configuration not stated) — higher, 184 to 186 °C
- CCCCNS(=O)(=O)CC(O)C(O)C(CC1CCCCC1)NC(=O)C(CC)Cc1c[nH]cn1 (configuration not stated) — lower, 60 to 90 °C
- CCOc1ccc(S(=O)(=O)N(CC(=O)NN=C2C(=O)Nc3ccccc32)c2ccc(C)cc2)cc1 — lower, 130 to 131 °C
- C[C@H]1CCCC(C)(C)[C@@H]1[C@H](O)c1ccc(OC(F)(F)F)c(F)c1 — lower, 60.3 to 62.2 °C
- CCNC(=O)n1nc(Oc2ccc(F)cc2[N+](=O)[O-])cc1C — lower, 81 to 84 °C
- COc1nc(N)nc2oc(C)cc12 — higher, 173 to 175 °C
- COc1cc(OC)c2c(=O)[nH]c(-c3ccc(OC)c(-c4ccc(C(=O)N(C)C)cc4Cl)n3)nc2c1 — higher, 271 to 272 °C
- O=C(CN1C(=O)c2ccccc2C1=O)Nc1ccccc1Nc1ccccc1 — higher, 191 °C
- c1ccc(Cc2cccc3c2[nH]c2ccccc23)cc1 — lower, 117 °C
- Nc1nnc(Sc2ccccc2)s1 — higher, 202 to 203 °C
- C=C(C)C(=O)NC1=NN(c2ccc(Cl)c(Cl)c2)C(=O)C1 — higher, 212 to 213 °C
- COc1ccc(S(=O)(=O)Nc2ccccc2NC(=O)c2ccco2)cc1 — lower, 158 to 159 °C
- Cn1c(COc2cccc(N)c2)nc2ccccc21 — lower, 149 to 153 °C
- Cc1c(NC(=O)c2ccc(-c3ccc(Cl)cc3)cc2)ccc2cc(CN3CCCC3)cnc12 — higher, 227 to 229 °C
- Cc1ccc(Cl)c(-c2ccc(S(=O)(=O)N3c4ccccc4CC3C(=O)NCCOc3ccc(CC(=O)O)cc3)cc2)c1 (configuration not stated) — lower, 77 to 81 °C
- CC(=O)OCC1OC(n2cc(Cc3ccc(C4CC4)cc3)c3c(F)cccc32)C(OC(C)=O)C(OC(C)=O)C1OC(C)=O (configuration not stated) — higher, 190 to 192 °C
- CCCCn1c(=O)c2c(NC)n[nH]c2n(Cc2ccc([N+](=O)[O-])cc2)c1=O — higher, 277 to 279 °C
- O=C(O)C1=CCN(c2ncccc2F)CC1 — lower, 119 to 120 °C
- CC(C)c1cc(C(=O)CI)cc(C(C)C)c1O — lower, 127 to 128 °C
- Nc1nc(-c2ccccc2)cc(C2CCN(C(=O)c3ccccc3)CC2)n1 — lower, 104 to 105 °C
- Brc1ccc(/C=N/c2ccccc2)c(OCc2ccccc2)c1 — lower, 100 °C
- O=C1c2ccccc2C(=O)c2sc(-c3ccncc3)nc21 — higher, > 260 °C
- COc1ccc(CCc2oc3ccc(C#N)cc3c2C(C)=O)cc1 — lower, 130 to 131 °C
- CCN(CC)CCCCC1CCN(CCNC(=O)N2c3ccccc3C(=O)Nc3cccnc32)CC1 — higher, 167 °C
- O=C(Nc1ccccc1)Nc1ccc2ccc(Cl)nc2n1 — higher, 276 °C
- C=CCc1c(NC(=O)C(F)(F)F)ccc2c(=O)cc(C(=O)OCC)oc12 — lower, 136 to 137 °C
- O=C(Nc1nc[nH]n1)c1ccc(-c2ccc3nnn(Cc4ccc5ncccc5c4)c3n2)cc1Cl — higher, 286 to 288 °C
- CCC(C)c1ccccc1SC1=C(O)CC(c2ccccc2)(c2ccccc2)OC1=O (configuration not stated) — not separable, 161 to 162 °C
- OCC1(c2ccc(Cl)cc2)CC1c1ccc(-c2ccccc2)cc1 (configuration not stated) — higher, 168 to 170 °C
- CCOC(=O)c1csc(-c2cc3cccc(NS(=O)(=O)c4cccs4)c3[nH]2)n1 — higher, 240 to 241 °C
- O=C1c2cc3nnn(Cc4cnccn4)c(=O)c3cc2OC2CCCN12 (configuration not stated) — higher, 229 to 231 °C
- O=C(CCCCCCn1ccc2ccc(NC(=O)OC3CCCC3)cc21)NS(=O)(=O)c1ccccc1 — lower, 74 to 76 °C
- COC(=O)C1Oc2ccc(Oc3ccc(Cl)cc3)cc2C(C)(c2ccccc2)O1 (configuration not stated) — lower, 100 °C
- CC(=O)c1cccc2c1Cc1ccccc1-2 — lower, 84 to 87 °C
- CN(C)c1cnc(-c2cccc(Cl)c2Cl)c(N)n1 — lower, 147 to 148 °C
- CC1(C)CCNC(=O)C(Cl)(Cl)C1 — lower, 108 to 110 °C
- O=C(CC1CCOCC1)c1c(O)c2cccnc2n(-c2ccccc2)c1=O — higher, 198 to 203 °C
- CC(C)C1C(O)=CC(=O)N1c1ccc(C#N)c(Cl)c1 (configuration not stated) — higher, 217 to 219 °C
- NNC(=O)c1cc2c(Oc3ccc(C(F)(F)F)cc3)cncc2s1 — lower, 146 to 147 °C
- Cc1ccc(COC(=O)NC(CO)Cc2ccc(O)cc2)cc1 (configuration not stated) — lower, 128 to 129 °C
- CC(O)Cn1cc(-c2ccccc2)c2ccccc2c1=O (configuration not stated) — the same, 162 °C
- Nc1nc2ccccc2c2c1ncn2CCOCC#Cc1cccs1 — lower, 148 to 150 °C
- CC(=O)NCOc1ccc(S(=O)(=O)N2C3CCC2CN(CC(=O)Nc2ccccc2C)C3)cc1 — higher, 205 to 206 °C
- CCN(CC)S(=O)(=O)c1cc(C)c2c(c1)S(=O)(=O)NC(C1CCCCC1)=N2 — higher, 206 to 208 °C
- CCOC(=O)c1cccc(NC(=O)N[C@@H]2N=C(c3ccccc3)c3ccccc3N(C)C2=O)c1 — lower, 140 to 142 °C
- COc1ccc2c(c1)c1c(n2C)CCC(Cc2nc[nH]c2C)C1=O (configuration not stated) — higher, 227 to 229 °C
- O=C(NCc1ccc(Cl)cc1)c1cnc2c(Cl)cccc2c1O — higher, 279 to 281 °C
- Cc1oc(-c2ccccc2)nc1COc1ccc2oc(/C=C/CO)cc2c1 — lower, 145 to 146 °C
- CCOC(=O)c1csc(C2OC(CO)C(O)C2O)n1 (configuration not stated) — lower, 62 to 64 °C
- Cc1cc(I)cc2[nH]c(C(=O)O)cc(=O)c12 — higher, 294 °C
- CC(C)n1nc(-c2cnc(N)nc2-c2cccnc2)ccc1=O — higher, 204 °C
- CNC(=O)C(O)C1=CC2(CCCC2)c2ccccc21 (configuration not stated) — lower, 136 to 138 °C
- O=C(Nc1ccc(C(=O)N2CCc3cn[nH]c3-c3sccc32)c(Cl)c1)c1cc(Cl)ccc1F — higher, 282 to 288 °C
- CN(C)c1nc(Cl)nc(-n2ccnc2)n1 — lower, 88 to 92 °C
- COCCOc1ccc(CCCOC(=O)NS(N)(=O)=O)c(Oc2ncc(Cl)cc2Cl)c1 — lower, 153 to 154 °C
- CCCc1c(COc2ccc(Cc3nnnn3CC(=O)O)cc2)ccc(C(C)=O)c1O — higher, 205 to 210 °C
- OCCc1ccc2c(c1)sc1ccc(Cl)cc12 — lower, 98 to 100 °C
- Cc1c(F)c(N2CCN(C=O)C(C)C2)cc2c1C(=O)C(C=O)CN2C1CC1 (configuration not stated) — lower, 148 to 150 °C
- CCCCc1cnc(NCCCOc2cccc(CN3CCCCC3)c2)[nH]c1=O — lower, 105 to 106 °C
- O=C(OCc1ccc(Br)cc1)C1C(=O)OC2CC(=O)N21 (configuration not stated) — lower, 106 °C
- CCOc1c(C(F)(F)F)ncn(-c2c(Cl)cc(C(F)(F)F)cc2[N+](=O)[O-])c1=O — lower, 97.5 to 100 °C
- O=C(NCc1cccnc1)c1ccc2n1Cc1ccccc1N(C(=O)c1ccc(-c3ccccc3Cc3nnn[nH]3)cc1)C2 — higher, 164 to 167 °C
- O=[N+]([O-])c1ccc(C=Cc2ccc(N3CCOCCOCCOCCOCCOCC3)cc2)c([N+](=O)[O-])c1 — lower, 90 to 91 °C
- O=c1[nH]c2[nH]c3ccccc3c2c2ccccc12 — higher, > 310 °C
- O[C@H](COc1cccc2[nH]ccc12)CN1CC=C(c2c[nH]c3cccc(F)c23)CC1 — lower, 90 to 95 °C
- CS(=O)(=O)NCc1ccc([N+](=O)[O-])cc1 — lower, 136 to 139 °C
- CC(C)(CO)c1ccc(C(=O)Nc2cn3cc(-n4ccnc4)ccc3n2)cc1 — higher, 278 to 280 °C
- COc1ccc(CSc2nnc(-c3ccc4[nH]ncc4c3)o2)cc1 — higher, 204 to 205 °C
